The values below come from ChEMBL document CHEMBL5143633, “Isolation, Structure Determination, and Semisynthesis of Diphenazine Compounds from a Deep-Sea-Derived Strain of the Fungus Cystobasidium laryngis and Their Biological Activities” (J Nat Prod, 2022).

For data set [1], the system named is NCI-H23. Put plainly: Cytotoxicity against human NCI-H23 cells assessed as cell growth inhibition incubated for 48 hrs by SRB method. The data set is classed as functional, cell-based. The conditions noted are these: NCI-H23, 48 h. Background: In SRB staining, fixed cells bind dye roughly in proportion to their protein.
Data set [2] relates to MDA-MB-231. Put plainly: Cytotoxicity against human MDA-MB-231 cells assessed as cell growth inhibition incubated for 48 hrs by SRB method. Type of data set: functional, cell-based. The conditions noted are these: MDA-MB-231, 48 h.
The subject of data set [3] is BV-2. The experiment in a line: Anti-neuroinflammatory activity in mouse BV-2 cells assessed as inhibition of LPS-induced NO production pretreated for 1 hr followed by LPS addition measured after 24 hrs by Griess reagent based assay. Type of data set: functional, cell-based.
Data set [4] has as its system NUGC-3. Put plainly: Cytotoxicity against human NUGC-3 cells assessed as cell growth inhibition incubated for 48 hrs by SRB method. Type of data set: functional, cell-based. The conditions noted are these: NUGC-3, 48 h.
Data set [5] relates to ACHN. The experiment in a line: Cytotoxicity against human ACHN cells assessed as cell growth inhibition incubated for 48 hrs by SRB method. The data set is classed as functional, cell-based.
The subject of data set [6] is HCT-15. The experiment in a line: Cytotoxicity against human HCT-15 cells assessed as cell growth inhibition incubated for 48 hrs by SRB method. The conditions noted are these: HCT-15, 48 h. Type of data set: functional, cell-based.
The test system of data set [7] is PC-3. Put plainly: Cytotoxicity against human PC-3 cells assessed as cell growth inhibition incubated for 48 hrs by SRB method. Type of data set: functional, cell-based. The note with it: PC-3, 48 h.
Data set [8] concerns BV-2. The experiment in a line: Cytotoxicity against LPS induced mouse BV-2 cells assessed as reduction in cell viability at >1 uM pretreated for 1 hr followed by LPS addition measured after 24 hrs by MTT assay. The data set is classed as toxicity, cell-based. The conditions noted are these: bv-2, 25 h. Background: Tetrazolium dyes change colour on reduction, which living cells bring about.

Where a name gives a salt, the structure may show the parent alone.

Take `C[C@@H](O)c1cccc2nc3c(C(=O)O)cccc3nc12`: the half-maximal inhibitory concentration (IC50) was above 10 µM in data set [1]; above 10 µM in data set [2]; 16 µM in data set [3]; above 10 µM in data set [4]; above 10 µM in data set [5]; above 10 µM in data set [6]. The IC50 in data set [7] is above 10 µM.

As to `C[C@H](c1cccc2nc3c(C(=O)O)cccc3nc12)c1ccc(C(=O)O)c2nc3cccc([C@@H](C)O)c3nc12`, the IC50 in data set [1] was above 10 µM; in data set [2] it was above 10 µM; in data set [3], 170 µM; in data set [4] it was above 10 µM; in data set [5] it was above 10 µM; in data set [6] it was above 10 µM. Moreover, the IC50 in data set [7] is above 10 µM.

For the compound `CC(=O)c1cccc2nc3c(C(=O)O[C@H](C)c4cccc5nc6c(C(=O)O)cccc6nc45)cccc3nc12`, the IC50 in data set [1] came out at 0.043 µM; in data set [2], 0.052 µM; in data set [4], 0.035 µM; in data set [5], 0.072 µM; in data set [6], 0.06 µM; in data set [7], 0.047 µM.

As to `C[C@@H](c1cccc2nc3c(C(=O)O)cccc3nc12)c1ccc(C(=O)O)c2nc3cccc([C@@H](C)O)c3nc12`, the IC50 was above 10 µM in data set [1]; above 10 µM in data set [2]; 90 µM in data set [3]; above 10 µM in data set [4]; above 10 µM in data set [5]; above 10 µM in data set [6]. Further, the IC50 in data set [7] was above 10 µM.

Consider `CC(=O)c1cccc2nc3c(C(=O)O)ccc([C@H](C)c4cccc5nc6c(C(=O)O)cccc6nc45)c3nc12`, for which the IC50 in data set [1] was above 10 µM; in data set [2] it was above 10 µM; in data set [3], 35 µM; in data set [4] it was above 10 µM; in data set [5] it was above 10 µM; in data set [6] it was above 10 µM. Besides, the IC50 in data set [7] is above 10 µM.

With `C[C@@H](O)c1cccc2nc3c(C(=O)O[C@H](C)c4cccc5nc6c(C(=O)O)cccc6nc45)cccc3nc12`, the IC50 in data set [1] stood at 0.01 µM; in data set [2] it was 0.01 µM; in data set [3], 0.3 µM; in data set [4] it was 0.0077 µM; in data set [5], 0.014 µM; in data set [6], 0.01 µM. In data set [7], the IC50 was 0.01 µM. Moreover, the Activity result in data set [8] is listed as “Toxic”.

On to `C[C@@H](OC(=O)c1ccccc1N)c1cccc2nc3c(C(=O)O)cccc3nc12`, for which the IC50 in data set [1], in data set [2], in data set [4], in data set [5], in data set [6] and in data set [7] was above 10 µM each time.

For `C[C@@H](c1cc(C(=O)O)c2nc3cccc([C@@H](C)O)c3nc2c1)c1cccc2nc3c(C(=O)O)cccc3nc12`, the half-maximal inhibitory concentration (IC50) in data set [1], in data set [2], in data set [4], in data set [5], in data set [6] and in data set [7] was above 10 µM in each case.

As for `C[C@H](c1cc([C@@H](C)O)c2nc3cccc(C(=O)O)c3nc2c1)c1cccc2nc3c(C(=O)O)cccc3nc12`, the IC50 in data set [1], in data set [2], in data set [4], in data set [5], in data set [6] and in data set [7] was above 10 µM throughout.

As to `COc1cccc2c1C(=O)c1c(O)c3c(c(O)c1C2=O)C[C@@](O)(C(=O)CO)C[C@@H]3O[C@H]1C[C@H](N)[C@H](O)[C@H](C)O1` [DOXORUBICIN HYDROCHLORIDE], the IC50 amounted to 0.16 µM in data set [1]; 0.15 µM in data set [2]; 0.15 µM in data set [4]; 0.17 µM in data set [5]; 0.17 µM in data set [6].

By IC50 is commonly meant the midpoint of a concentration-inhibition curve.
